Test [1] addresses T1, Cannabinoid CB1 Receptor (Homo sapiens, UniProt P21554).
T1 construct: expressed in transfected cells
The experiment in a line: Binding assay for CB1 agonists or inverse agonists (radioligand competition, membranes of transfected SK-N-MC cells). (In general: Displacement assays read how much labelled ligand stays bound in the presence of the test substance.)

Test [2] deals with T2, Cannabinoid CB2 Receptor (Homo sapiens, UniProt P34972).
T2 construct: expressed in transfected cells
The experiment in a line: Binding assay for CB2 agonists or inverse agonists (radioligand competition, membranes of transfected SK-N-MC cells). As to conditions: for inhibition at 0.2 µM: read-out: Cannabinoid CB2 Receptor Binding percent inhibition.

Test [3] has as its target CB1 receptor (human) (Homo sapiens, UniProt P21554). The experiment in a line: cell-based.

The record followed here is patent publication US20060089378A1 (priority 2004, published 2006).

SMILES strings stand for the structures. Where two headings read alike, the source gives them in different places.

T2 sequence (P34972 whole entry): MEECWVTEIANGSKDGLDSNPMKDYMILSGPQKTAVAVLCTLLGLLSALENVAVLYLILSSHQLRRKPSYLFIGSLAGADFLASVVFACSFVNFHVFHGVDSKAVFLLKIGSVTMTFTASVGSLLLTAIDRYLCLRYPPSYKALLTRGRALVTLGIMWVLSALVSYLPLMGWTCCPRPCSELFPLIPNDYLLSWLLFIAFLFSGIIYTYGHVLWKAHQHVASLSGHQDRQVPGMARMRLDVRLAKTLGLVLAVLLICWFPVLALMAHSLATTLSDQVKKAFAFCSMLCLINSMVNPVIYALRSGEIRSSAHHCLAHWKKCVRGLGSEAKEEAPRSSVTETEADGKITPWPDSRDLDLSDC
Chain of CB1 receptor (human) (P21554 whole entry): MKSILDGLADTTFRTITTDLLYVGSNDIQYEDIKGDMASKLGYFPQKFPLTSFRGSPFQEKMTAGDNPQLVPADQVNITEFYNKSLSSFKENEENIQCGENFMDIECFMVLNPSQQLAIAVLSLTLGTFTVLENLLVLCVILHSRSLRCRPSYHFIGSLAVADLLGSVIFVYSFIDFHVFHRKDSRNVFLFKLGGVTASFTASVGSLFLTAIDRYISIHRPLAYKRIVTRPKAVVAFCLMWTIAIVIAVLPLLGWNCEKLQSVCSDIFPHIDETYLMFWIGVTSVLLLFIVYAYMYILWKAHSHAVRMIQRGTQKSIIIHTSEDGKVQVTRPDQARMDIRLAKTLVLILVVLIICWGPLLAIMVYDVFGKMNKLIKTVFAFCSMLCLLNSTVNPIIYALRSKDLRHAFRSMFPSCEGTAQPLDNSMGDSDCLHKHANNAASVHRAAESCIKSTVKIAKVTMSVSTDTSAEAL
T1 sequence (P21554 whole entry): as above

Molecule `CCNC(=O)N1C/C(=C\c2ccc(F)cc2)c2c(c(C(=O)N[C@H](C)c3ccccc3)nn2-c2ccc(Cl)cc2Cl)C1` [Cpd 19, (7E)-1-(2,4-dichloro-phenyl)-7-(4-fluoro-benzylidene)-1,4,6,7-tetrahydro-pyrazolo[4,3-c]pyridine-3,5-dicarboxylic acid 5-ethylamide 3-[(1R)-(1-phenyl-ethyl)-amide]] registered a 50% inhibitory concentration (IC50) in test [1] of 7 nM. Moreover, the inhibition at 0.2 µM in test [2] amounted to 10%. For the same molecule, in test [3], the midpoint of the response, the EC50, lay at 5 nM.

In turn, `COc1ccc(/C=C2\CN(C(=O)OC(C)(C)C)Cc3c(C(=O)NC(C)c4ccccn4)nn(-c4ccc(Cl)cc4Cl)c32)cc1` (stereo not drawn) [Cpd 36, (7E)-1-(2,4-dichloro-phenyl)-7-(4-methoxy-benzylidene)-3-(1-pyridin-2-yl-ethylcarbamoyl)-1,4,6,7-tetrahydro-pyrazolo[4,3-c]pyridine-5-carboxylic acid tert-butyl ester] displayed an IC50 in test [1] of 40 nM. In test [2], the inhibition at 0.2 µM amounted to 27%. For the same molecule, in test [3], the response was half-maximal at 6 nM (EC50).

Take `COC(=O)N1C/C(=C\c2ccc(OC)cc2)c2c(c(C(=O)N[C@H](C)c3ccccc3)nn2-c2ccc(Cl)cc2Cl)C1` [Cpd 44]: in test [1], the half-maximal inhibitory concentration (IC50) is 2 nM. Also, the inhibition at 0.2 µM in test [2] is 69%. The same molecule had an EC50 in test [3] of 0.2 nM.

As for `CCCCn1nc(C(=O)NC2C3(C)CCC(C3)C2(C)C)c2c1CCN(C(=O)OC)C2` (stereo not drawn) [Cpd 116, 1-butyl-3-(1,3,3-trimethyl-bicyclo[2.2.1]hept-2-ylcarbamoyl)-1,4,6,7-tetrahydro-pyrazolo[4,3-c]pyridine-5-carboxylic acid methyl ester], the half-inhibitory concentration (IC50) in test [1] was 100 nM. In test [2], the inhibition at 0.2 µM is 53%. In test [3], this molecule came in with an EC50 of 2900 nM.

For the molecule `C[C@@H](NC(=O)c1nn(-c2ccc(Cl)cc2Cl)c2c1CN(S(=O)(=O)N(C)C)C/C2=C\c1ccc(F)cc1)c1ccccc1` [Cpd 39, (7E)-1-(2,4-dichloro-phenyl)-5-dimethylsulfamoyl-7-(4-fluoro-benzylidene)-4,5,6,7-tetrahydro-1H-pyrazolo[4,3-c]pyridine-3-carboxylic acid [(1R)-1-phenyl-ethyl]-amide], the IC50 in test [1] turned out to be 2 nM. Also, in test [2] (test concentration of 0.2 μM, compounds without an IC50 binding value), the inhibition at 0.2 µM stood at 42%. Besides, a half-maximal effect in test [3] (EC50) was put at 1 nM.

Consider `CC(=O)N1CCc2c(c(C(=O)NC3C4(C)CCC(C4)C3(C)C)nn2-c2ccccc2)C1` (stereo not drawn) [Cpd 112, 5-acetyl-1-phenyl-4,5,6,7-tetrahydro-1H-pyrazolo[4,3-c]pyridine-3-carboxylic acid (1,3,3-trimethyl-bicyclo[2.2.1]hept-2-yl)-amide], for which the inhibition at 0.2 µM in test [1] (test concentration of 0.2 μM, compounds without an IC50 binding value, read-out: Cannabinoid CB1 Receptor Binding percent inhibition) turned out to be 44%. The molecule further yielded an IC50 in test [2] of 100 nM. Moreover, the “CB1 Receptor Functional Activity (change in functional activity, CRE β-gal)” value in test [3] (one compound concentration, β-galactosidase activity relative to vehicle treated cells) amounted to 45%.

Regarding `CC(=O)N1C/C(=C\c2ccc(F)cc2)c2c(c(C(=O)NN3CC4CCCC4C3)nn2-c2ccc(Cl)cc2Cl)C1` (stereo not drawn) [Cpd 91, (7E)-5-acetyl-1-(2,4-dichloro-phenyl)-7-(4-fluoro-benzylidene)-4,5,6,7-tetrahydro-1H-pyrazolo[4,3-c]pyridine-3-carboxylic acid (hexahydro-cyclopenta[c]pyrrol-2-yl)-amide], the IC50 in test [1] was 50 nM. Moreover, the inhibition at 0.2 µM in test [2] is 14%. Besides, in test [3], the EC50 worked out at 3 nM.

`CCOC(=O)CN1C/C(=C\c2ccc(F)cc2)c2c(c(C(=O)N[C@H](C)c3ccccc3)nn2-c2ccc(Cl)cc2Cl)C1` [Cpd 43, (7E)-[1-(2,4-dichloro-phenyl)-7-(4-fluoro-benzylidene)-3-[(1R)-1-phenyl-ethylcarbamoyl]-1,4,6,7-tetrahydro-pyrazolo[4,3-c]pyridin-5-yl]-acetic acid ethyl ester] gave an IC50 in test [1] of 2 nM. The inhibition at 0.2 µM in test [2] is 36%. Further, the concentration for a half-maximal effect (EC50) in test [3] came out at 0.6 nM.

In turn, `C[C@@H](NC(=O)c1nn(-c2ccc(Cl)cc2Cl)c2c1CN(S(C)(=O)=O)C/C2=C\c1ccc(F)cc1)c1ccccc1` [Cpd 17] gave a half-maximal inhibitory concentration (IC50) in test [1] of 2 nM. Also, the inhibition at 0.2 µM in test [2] was found to be 36%. Further, it took 6 nM to reach a half-maximal effect in test [3] (EC50).

One may read the IC50 as the concentration at which inhibition is half-maximal. Low values mean greater potency, high ones weaker potency. By inhibition is commonly meant the change of the read-out against control, counted positive when it falls. In general, EC50 refers to the midpoint of the concentration-response curve.
